A value given as a limit tells only on which side of the number the result lay.

This assay has as its target T1, N-terminally GST-tagged human full length recombinant Mps-1 kinase (Homo sapiens, UniProt P33981).
T1 construct: N-terminally GST-tagged human full length recombinant Mps-1 kinase; purchased Invitrogen, Karslruhe, Germany PV4071
T1 sequence (P33981 1-857): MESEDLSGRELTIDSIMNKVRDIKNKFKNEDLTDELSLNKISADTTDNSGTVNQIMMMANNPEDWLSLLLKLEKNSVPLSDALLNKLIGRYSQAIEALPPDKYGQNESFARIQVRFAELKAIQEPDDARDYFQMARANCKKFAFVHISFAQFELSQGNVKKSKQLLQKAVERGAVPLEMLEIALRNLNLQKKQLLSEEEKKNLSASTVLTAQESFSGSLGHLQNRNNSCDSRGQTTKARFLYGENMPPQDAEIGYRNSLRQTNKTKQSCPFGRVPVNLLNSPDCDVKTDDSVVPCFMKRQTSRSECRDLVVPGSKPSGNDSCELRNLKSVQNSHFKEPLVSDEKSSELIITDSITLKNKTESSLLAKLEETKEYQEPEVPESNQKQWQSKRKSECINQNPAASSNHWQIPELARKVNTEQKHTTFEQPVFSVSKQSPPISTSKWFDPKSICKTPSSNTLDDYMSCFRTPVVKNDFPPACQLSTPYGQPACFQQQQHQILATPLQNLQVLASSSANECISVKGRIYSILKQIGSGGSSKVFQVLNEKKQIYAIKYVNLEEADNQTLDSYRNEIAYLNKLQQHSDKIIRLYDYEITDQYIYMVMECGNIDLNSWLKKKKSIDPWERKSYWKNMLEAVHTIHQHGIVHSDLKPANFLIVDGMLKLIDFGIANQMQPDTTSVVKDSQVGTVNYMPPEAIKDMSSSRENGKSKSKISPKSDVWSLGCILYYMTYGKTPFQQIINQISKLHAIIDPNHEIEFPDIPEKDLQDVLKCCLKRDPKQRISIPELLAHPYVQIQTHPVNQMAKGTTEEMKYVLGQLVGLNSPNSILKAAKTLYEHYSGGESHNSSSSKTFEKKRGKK
The experiment in a line: Mps-1 kinase assay (TR-FRET). It is filed as biochemical. The following applies: Mps1 IC50 [nM], 10 μM ATP, 1 μM peptide substrate, 60 min at 22° C. A digest of the protocol:
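Kinase activity of N-terminally GST-tagged full-length recombinant Mps-1, used at about 1 nM final and set within the linear range, was measured on a biotinylated peptide substrate. Phosphopeptide was detected by TR-FRET from Eu-anti-phospho(Ser/Thr) antibody to streptavidin-XLent after 1 h at 22° C.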
For `CNc1cc(Oc2cncc(F)c2)nn2c(-c3ccc(C(=O)NC4CC4)c(C)c3)cnc12` [Example 533, N-cyclopropyl-4-{6-[(5-fluoropyridin-3-yl)oxy]-8-(methylamino)imidazo [1,2-b]pyridazin-3-yl}-2-methylbenzamide], the IC50 is 1.2 nM.

As to `CNC(=O)c1ccc(-c2cc(NCC(C)C)c3ncc(-c4ccc(C(=O)NC5CC5)cc4)n3n2)cn1` [Example 149, 5-{3-[4-(Cyclopropylcarbamoyl)phenyl]-8-[(2-methylpropyl)amino]imidazo[1,2-b]pyridazin-6-yl}-N-methylpyridine-2-carboxamide], the IC50 amounted to 2.2 nM.

For the molecule `Cc1cc(-c2cnc3c(NCCC(F)(F)F)cc(Sc4ccc(F)c(F)c4)nn23)ccc1C(=O)NC1CC1` [Example 249, N-cyclopropyl-4-{6-[(3,4-difluorophenyl)sulfanyl]-8-[(3,3,3-trifluoropropyl)amino]imidazo[1,2-b]pyridazin-3-yl}-2-methylbenzamide], the IC50 came to 0.2 nM.

In the case of `Cc1cc(-c2cnc3c(NCC(C)C)cc(-c4cncc(C#N)c4)nn23)ccc1C(=O)NC1CC1` [Example 213, 4-{6-(5-Cyanopyridin-3-yl)-8-(isobutylamino)imidazo[1,2-b]pyridazin-3-yl}-N-cyclopropyl-2-methylbenzamide], the concentration for half-maximal inhibition (IC50) is less than 1 nM.

Take `CCNC(=O)c1ccc(-c2cnc3c(NCCN4CCOCC4)cc(Oc4ccc(F)c(F)c4)nn23)cc1C` [Example 588, 4-[6-(3,4-difluorophenoxy)-8-{[2-(morpholin-4-yl)ethyl]amino}imidazo[1,2-b]pyridazin-3-yl]-N-ethyl-2-methylbenzamide]: the IC50 was determined as 2.2 nM.

With `CC(C)CNc1cc(-c2ccncc2)nn2c(-c3ccc(-c4cnc(C5CC5)[nH]4)cc3)cnc12` [Example 3, 3-[4-(2-Cyclopropyl-1H-imidazol-5-yl)phenyl]-N-isobutyl-6-(pyridin-4-yl) imidazo[1,2-b]pyridazin-8-amine], the IC50 worked out at 13.7 nM.

Consider `Cc1cc(-c2cnc3c(NCCN(C)C)cc(Oc4ccc(Cl)cc4)nn23)ccc1C(=O)NC1CC1` [Example 523, 4-[6-(4-chlorophenoxy)-8-{[2-(dimethylamino)ethyl]amino}imidazo[1,2-b]pyridazin-3-yl]-N-cyclopropyl-2-methylbenzamide], for which the IC50 amounted to 0.7 nM.

Turning to `CCNC(=O)c1ccc(-c2cnc3c(NCCOC)cc(Oc4ccc(OC)cc4F)nn23)cc1C` [Example 608, N-ethyl-4-{6-(2-fluoro-4-methoxyphenoxy)-8-[(2-methoxyethyl)a-mino]imidazo[1,2-b]pyridazin-3-yl}-2-methylbenzamide], the IC50 turned out to be 3.9 nM.

For `CC(C)CNc1cc(-c2cccnc2)nn2c(-c3ccc(C(=O)NC4CC4)cc3)cnc12` [Example 138, N-cyclopropyl-4-{8-[(2-methylpropyl)amino]-6-(pyridin-3-yl)imidazo [1,2-b]pyridazin-3-yl} benzamide], the IC50 was found to be 2 nM.

For `COc1ccc(Sc2cc(NCC(C)(C)O)c3ncc(-c4ccc(C(=O)NC5CC5)c(C)c4)n3n2)cc1` [Example 60B, N-cyclopropyl-4-{8-[(2-hydroxy-2-methylpropyl)amino]-6-[(4-methoxyphenyl)sulfanyl]imidazo[1,2-b]pyridazin-3-yl}-2-methylbenzamide], the IC50 was less than 0.1 nM.

As to `Cc1cc(-c2cnc3c(NCC4CCSCC4)cc(Oc4ccccc4F)nn23)ccc1C(=O)NC1CC1` [Example 283, N-cyclopropyl-4-{6-(2-fluorophenoxy)-8-[(tetrahydro-2H-thiopyran-4-ylmethyl)amino]imidazo[1,2-b]pyridazin-3-yl}-2-methylbenzamide], the IC50 stood at 0.3 nM.

On to `Cc1cc(-c2cnc3c(NCC(C)(C)O)cc(-c4cc(C(F)(F)F)nn4C)nn23)ccc1C(=O)NC1CC1` [Example 235, N-cyclopropyl-4-{8-[(2-hydroxy-2-methylpropyl)amino]-6-[1-methyl-3-(trifluoromethyl)-1H-pyrazol-5-yl]imidazo[1,2-b]pyridazin-3-yl}-2-methylbenzamide], for which the IC50 is 6.2 nM.

For the molecule `Cc1cc(-c2cnc3c(NCCS(=O)(=O)O)cc(Oc4cccc(F)c4)nn23)ccc1C(=O)NC1CC1` [Example 548, 2-({3-[4-(cyclopropylcarbamoyl)-3-methylphenyl]-6-(3-fluorophenoxy)imidazo[1,2-b]pyridazin-8-yl}amino)ethanesulfonic acid], the IC50 came to 0.7 nM.

In the case of `Cc1cc(-c2cnc3c(NCCCN)cc(Oc4cccc(F)c4)nn23)ccc1C(=O)NC1CC1` [Example 546, 4-{8-[(3-aminopropyl)amino]-6-(3-fluorophenoxy)imidazo[1,2-b]pyridazin-3-yl}-N-cyclopropyl-2-methylbenzamide], the IC50 is 0.1 nM.

For `COc1ccc(Oc2cc(NCCS(C)(=O)=O)c3ncc(-c4ccc(C(=O)NC5CC5)c(C)c4)n3n2)cc1F` [Example 518, N-cyclopropyl-4-[6-(3-fluoro-4-methoxyphenoxy)-8-{[2-(methylsulfonyl)ethyl]amino}imidazo [1,2-b]pyridazin-3-yl]-2-methylbenzamide], the IC50 is 0.1 nM.

Regarding `Cc1cc(-c2cnc3c(NCCC(F)(F)F)cc(SCCC(C)(C)C)nn23)ccc1C(=O)NC1CC1` [Example 226, N-cyclopropyl-4-{6-[(3,3-dimethylbutyl)sulfanyl]-8-[(3,3,3-trifluoropropyl)amino]imidazo[1,2-b]pyridazin-3-yl}-2-methylbenzamide], the concentration for half-maximal inhibition (IC50) is 1.3 nM.

Consider `Cc1cc(-c2cnc3c(NCC(C)(C)O)cc(Oc4ccccn4)nn23)ccc1C(=O)NC1CC1` [Example 274, N-cyclopropyl-4-{8-[(2-hydroxy-2-methylpropyl)amino]-6-(pyridin-2-yloxy)imidazo[1,2-b]pyridazin-3-yl}-2-methylbenzamide], for which the IC50 came out at 73.8 nM.

For `Cc1cc(-c2cnc3c(NCCN4CCN(C)CC4)cc(Oc4cccc(F)c4)nn23)ccc1C(=O)NC1CC1` [Example 501, N-cyclopropyl-4-[6-(3-fluoro-phenoxy)-8-{[2-(4-methyl-piperazin-1-yl)ethyl]amino}imidazo[1,2-b]pyridazin-3-yl]-2-methylbenzamide], the IC50 is 0.1 nM.

As to `Cc1cc(-c2cnc3c(NCCC(F)(F)F)cc(Oc4cccc5ncccc45)nn23)ccc1C(=O)NC1CC1` [Example 170, N-cyclopropyl-2-methyl-4-{6-(quinolin-5-yloxy)-8-[(3,3,3-trifluoro-propyl)amino]imidazo[1,2-b]pyridazin-3-yl}benzamide], the IC50 worked out at 0.7 nM.

As to `CCNC(=O)c1ccc(-c2cnc3c(NCC4CCOCC4)cc(Oc4ccc(OC)cc4F)nn23)cc1C` [Example 598, N-ethyl-4-{6-(2-fluoro-4-methoxyphenoxy)-8-[(tetrahydro-2H-pyran-4-ylmethyl)a-mino]imidazo[1,2-b]pyridazin-3-yl}-2-methylbenzamide], the IC50 was less than 1 nM.

On to `COC(C)(C)CNc1cc(-c2ccccc2CO)nn2c(-c3ccc(C(=O)NC4CC4)c(C)c3)cnc12` [Example 38, N-cyclopropyl-4-{6-[2-(hydroxymethyl)phenyl]-8-[(2-methoxy-2-methylpropyl)amino]imidazo[1,2-b]pyridazin-3-yl}-2-methylbenzamide], for which the 50% inhibitory concentration (IC50) came out at 10.3 nM.

As to `CNC(=O)c1ccc(-c2cnc3c(NCCOC)cc(Oc4ccc(OC)c(F)c4)nn23)cc1C` [Example 586, 4-{6-(3-fluoro-4-methoxyphenoxy)-8-[(2-methoxyethyl)a-mino]imidazo[1,2-b]pyridazin-3-yl]-N,2-dimethylbenzamide], the IC50 turned out to be 1 nM.

Consider `Cc1cc(-c2cnc3c(NCC(C)(C)N)cc(Oc4cccc(F)c4)nn23)ccc1C(=O)NC1CC1` [Example 314, 4-{8-[(2-amino-2-methyl-propyl)amino]-6-(3-fluorophenoxy)imidazo[1,2-b]pyridazin-3-yl}-N-cyclopropyl-2-methyl-benzamide], for which the IC50 is 0.2 nM.

For the molecule `CNc1ccccc1Oc1cc(NCCN2CCOCC2)c2ncc(-c3ccc(C(=O)NC4CC4)c(C)c3)n2n1` [Example 538, N-cyclopropyl-2-methyl-4-(6-[2-(methylamino)phenoxy]-8-{[2-(morpholin-4-yl)ethyl]amino}imidazo[1,2-b]pyridazin-3-yl)benzamide], the IC50 came out at 0.8 nM.

Take `CC(C)CNc1cc(-c2ccc(NC(=O)N(C)C)cc2)nn2c(-c3ccc(C(=O)NC4CC4)cc3)cnc12` [Example 150, N-cyclopropyl-4-(6-{4-[(dimethylcarbamoyl)amino]phenyl}-8-[(2-methylpropyl)amino]imidazo[1,2-b]pyridazin-3-yl)benzamide]: the IC50 is 3.7 nM.

Source of the values: US9255100B2 (BAYER INTELLECTUAL PROPERTY GMBH, priority 2010, dated 2016).
